According to BigSolDB 2.1:

c1cc(-n2c3ccccc3c3ccccc32)cc(-n2c3ccccc3c3ccccc32)c1
solubility (mole fraction)
Details	273.15 K	283.15 K	293.15 K	303.15 K	313.15 K	323.15 K
in DMSO	–	–	0.00436	0.00443	0.00472	0.00505
in NMP	–	0.062	0.0702	0.0761	0.0801	–
in THF	–	0.0507	0.0528	0.0598	0.0792	–
in acetonitrile	–	0.000243	0.000311	0.000363	0.000483	–
in dichloromethane	0.0949	0.107	0.112	0.139	–	–
in ethanol	–	0.000448	0.000561	0.000802	0.00109	–
in ethyl acetate	–	0.00426	0.00599	0.00827	0.00879	–
in isopropanol	–	4.55e-05	5.9e-05	6.95e-05	0.00011	–
in methanol	–	4.36e-05	6.14e-05	9.66e-05	0.000108	–
in n-butanol	–	0.000122	0.00017	0.000217	0.000318	–
in n-hexane	–	0.000183	0.000259	0.000342	0.000381	–
in toluene	–	0.0263	0.0316	0.0336	0.0445	–
